From patent US20260224482A1, “USE OF OXIDATIVE PRECURSORS IN POULTRY FARMING” (AGA NANOTECH LTD, priority 2023, published 2026)
“Also recorded” adds a separate entry of the source.

Assays:
[1] = test system: Ross 308 male day-old chickens; assay: In-water PAA in chickens: performance and safety; format: in vivo
Experimental: (§1) A total of 96 Ross 308 male day-old chickens were used during the trial duration (randomized block design with 2 rooms, 12 pens per room, 4 birds per pen and 4 pens per level of inclusion), whilst PAA treatment was administered during the last week. Six different PAA levels of inclusion were tested through in-water daily administration of SP and TAED precursors. Possible PAA effect on body weight gain (BWG), FCR (feed conversion ratio), feed/water intake and BN (bacterial number) were assessed through fitting linear mixed model (i.e. treatment as fixed effect and hierarchy of room/pen/bird when possible as random effect). Longitudinal data were used when repeated measures were taken. Total bacterial number in DNA extracted from crop, jejunum and caecal content was calculated through qPCR targeting 16S rRNA gene (V3 region). Study design and protocol were approved by SRUC Animal Welfare and Review Body (POU AE 20-2019).

[2] = test system: total bacterial number in crop content; assay: Total bacterial number by qPCR targeting 16S rRNA gene; format: in vivo, chickens; conditions: in-water for one week via SP and TAED precursors; P=0.02
Experimental: as §1

CC(=O)OO [PAA, peracetic acid]
effect on BWG from D7 to D14 ([1]; PAA administered at 40 ppm, P=0.05): most evident effect | adverse effects ([1]; PAA in-water administration): no adverse effects | bird mortality ([1]; in-water PAA up to 50 ppm): 0 ^0/0 | BWG during treatment ([1]; in-water for one week via SP and TAED precursors, P=0.05): increased | BN in the crop [2]: reducing; also recorded: appears to be reduced by higher dosage
